Reference: ChEMBL document CHEMBL2311517, “Novel route to chaetomellic acid A and analogues: serendipitous discovery of a more competent FTase inhibitor” (Bioorg Med Chem, 2013)
pIC50: −log10 of the molar value. Where a SMILES comes first, the peptide text is derived from it. The star is where a group is joined. Dansyl = CN(C)c1cccc2c(S(=O)(=O)*)cccc12

Species on record: Rattus norvegicus
Assay: Activity of rat farnesyltransferase
Molecule `CC(C)C[C@H](NC(=O)[C@@H](NC(=O)[C@H](CS)NC(=O)CNS(=O)(=O)c1cccc2c(N(C)C)cccc12)C(C)C)C(=O)N[C@@H](CO)C(=O)O` (Dansyl-GCVLS-OH) has a kcat of 0.4 s⁻¹. For `CC[C@H](C)[C@H](NC(=O)[C@@H](NC(=O)[C@H](CS)NC(=O)CNS(=O)(=O)c1cccc2c(N(C)C)cccc12)C(C)C)C(=O)N[C@@H](C)C(=O)O` (Dansyl-GCVIA-OH), the kcat was greater than 0.2 s⁻¹.

Species on record: Rattus norvegicus
Assay: Ratio of […] to Km for rat farnesyltransferase
In the case of `CC(C)C[C@H](NC(=O)[C@@H](NC(=O)[C@H](CS)NC(=O)CNS(=O)(=O)c1cccc2c(N(C)C)cccc12)C(C)C)C(=O)N[C@@H](CO)C(=O)O` (Dansyl-GCVLS-OH), the kcat/Km was 170000 M⁻¹ s⁻¹. Molecule `CC[C@H](C)[C@H](NC(=O)[C@@H](NC(=O)[C@H](CS)NC(=O)CNS(=O)(=O)c1cccc2c(N(C)C)cccc12)C(C)C)C(=O)N[C@@H](C)C(=O)O` (Dansyl-GCVIA-OH) has a kcat/Km of 120000 M⁻¹ s⁻¹.

Molecular target: not listed separately
Assay: Inhibition of rat farnesyltransferase using dansyl-GCVIA as substrate preincubated for 5 mins measured over 300 secs by continuous fluorescence assay
`CCCCSCCCCCCCCC/C(C(=O)O)=C(\C)C(=O)O` showed a pIC50 of 6.72. `CCCCCCCCCCCCCCCC/C(C(=O)O)=C(\C)C(=O)O` gave a pIC50 of 5.59. In the case of `C=CCCCCCCC/C(C(=O)O)=C(\C)C(=O)O`, the pIC50 was 6.31. For `CCCCCCCCCCCCCC/C(C(=O)O)=C(\C)C(=O)O`, the pIC50 was 6.04.

Molecular target: not listed separately
Assay: Inhibition of yeast farnesyltransferase using dansyl-GCVIA as substrate preincubated for 5 mins measured over 300 secs by continuous fluorescence assay
Parameters: species or system Saccharomyces cerevisiae
Work on `CCCCSCCCCCCCCC/C(C(=O)O)=C(\C)C(=O)O` yielded a pIC50 of 5.46. For `CCCCCCCCCCCC/C(C(=O)O)=C(\C)C(=O)O` [CHAETOMELLIC ACID C], the pIC50 was 5.40. Molecule `CCCCCCCCCCCCCCCC/C(C(=O)O)=C(\C)C(=O)O` has a pIC50 of 4.18. With `C=CCCCCCCC/C(C(=O)O)=C(\C)C(=O)O` the pIC50 was 4.87. With `CC(C)=CCC/C(C)=C/CC/C(C)=C/C/C(C(=O)O)=C(\C)C(=O)O` the pIC50 was 5.62. With `CCCCCCCCCCCCCC/C(C(=O)O)=C(\C)C(=O)O` the pIC50 was 4.80.
